Results reported in US20140148470A1, “PYRIMIDINE COMPOUNDS FOR TREATING HAIRLOSS” (Boehringer Ingelheim International GmbH, priority 2012, published 2014).
Like-named read-outs stand apart in the source and are kept apart here.

Assays:
human CRTH2 = molecular target: T1, human CRTH2 (Homo sapiens, UniProt Q9Y5Y4); assay: Measurement of Ca2+ mobilization in the human CRTH2-transfected L1.2 cell line; type: cell-based; details: PGD2-induced Ca2+ mobilization, human CRTH2-transfected L1.2 cells; compounds as yielded by solid phase synthesis, purity about 40 to 90%; read-out: Activity class (IC50)
T1 construct: expressed in transfected cells; host or cells: L1.2 cells (pEAK expression vector, puromycin selection)
T1 sequence (Q9Y5Y4 1-395): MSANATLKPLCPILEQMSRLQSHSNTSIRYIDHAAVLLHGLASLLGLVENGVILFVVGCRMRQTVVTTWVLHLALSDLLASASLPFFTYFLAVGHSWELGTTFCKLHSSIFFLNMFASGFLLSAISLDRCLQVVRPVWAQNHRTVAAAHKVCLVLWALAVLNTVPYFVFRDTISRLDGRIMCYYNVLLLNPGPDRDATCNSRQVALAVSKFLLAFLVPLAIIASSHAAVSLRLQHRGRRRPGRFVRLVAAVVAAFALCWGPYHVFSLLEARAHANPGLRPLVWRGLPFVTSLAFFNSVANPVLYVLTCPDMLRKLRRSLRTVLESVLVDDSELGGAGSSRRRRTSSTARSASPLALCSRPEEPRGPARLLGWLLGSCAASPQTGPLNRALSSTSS
Text: [Preparation of Human CRTH2-Transfected L1. 2 Cell Line]
Human CRTH2 cDNA was amplified from human eosinophil cDNA with gene specific primers containing restriction sites for cloning into pEAK vector (Edge Bio Systems). The human CRTH2 cDNA was cloned into the mammalian expression vector pEAK. This expression plasmid ([…]) was transfected into L1. 2 cells, at a cell density of 1×10^7 cells/[…], by using electroporation apparatus (Gene Pulser II, BioRad) at 250V/[…]. One day after the transfection, puromycin (1 ug/mi, Sigma) was added into the cell culture plates. Two weeks after the transfection, grown cells were picked up for further growth.
[Measurement of Ca^2+ Mobilization in the Human CRTH2-Transfected L1. 2 Cell Line]
Ca^2+ loading buffer was prepared by mixing […] of Fluo-3AM (2 mM in DMSO, final 1 uM, Molecular Probes) and 10 µl of pluronic F-127 (Molecular Probes) and diluting the resulting mixture in 10 ml of Ca^2+ assay buffer (20 mM HEPES pH 7.6, 0.1% BSA, 1 mM probenecid, Hanks' solution). The CRTH2 transfected cells which were prepared in Example 1 were washed with PBS, resuspended in Ca2+ loading buffer at […] cells/ml, and incubated for 60 min at room temperature. After incubation, cells were washed and resuspended in Ca^2+ assay buffer, then dispensed into transparent-bottom 96-well plates (# 3631, Costar) at 2×10^5 cells/well. Cells were incubated with various concentrations of test compound for 5 minutes at room temperature. The emitted […] fluorescence was measured on FDSS6000, a Ca^2+-measurement apparatus (Hamamatsu Photonics, Hamamatsu, Japan).
The data corresponds to the compounds as yielded by solid phase synthesis and thus to levels of purity of about 40 to 90%. For practical reasons, the compounds are grouped in four classes of activity as follows: IC50=A (< or =) 10 nM<B (< or =) 100 nM<C (< or =) 500 nM<D. The compounds of the present invention also show excellent selectivity, and potent activity in Assays 2,3 and 4 described above.

CRTH2 (GPR44) = molecular target: T2, CRTH2 (GPR44) (Mus musculus, UniProt Q9Z2J6); details: topical to skin, cited from earlier work
T2 construct: host or cells: skin of wild-type mice, in vivo
T2 sequence (Q9Z2J6 1-382): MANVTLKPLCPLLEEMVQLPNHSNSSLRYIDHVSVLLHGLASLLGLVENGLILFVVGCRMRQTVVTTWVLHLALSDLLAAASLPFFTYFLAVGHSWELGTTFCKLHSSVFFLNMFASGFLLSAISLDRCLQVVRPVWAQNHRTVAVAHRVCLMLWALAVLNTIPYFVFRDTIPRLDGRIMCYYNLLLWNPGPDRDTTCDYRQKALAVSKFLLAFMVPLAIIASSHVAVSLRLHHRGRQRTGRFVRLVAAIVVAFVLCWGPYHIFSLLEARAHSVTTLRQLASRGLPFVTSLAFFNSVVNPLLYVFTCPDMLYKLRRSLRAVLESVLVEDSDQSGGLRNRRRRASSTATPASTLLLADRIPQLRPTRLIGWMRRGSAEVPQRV

[1] = tested on: explanted human hair follicles; details: cited from earlier work

CN(C)c1nc(Cc2ccc(NC(=O)c3ccc4ccccc4c3)cc2)nc(Cl)c1CC(=O)O [Example 1]
IC50 (human CRTH2): < 0.01 µM

CCCCC[C@H](O)/C=C/[C@H]1C(=O)C[C@H](O)[C@@H]1C/C=C\CCCC(=O)O [PGD2, prostaglandin D2]
hair growth (CRTH2 (GPR44); CRTH2 (GPR44) knockout mice): not
hair growth (CRTH2 (GPR44); wild-type mice): inhibited hair growth
hair growth [1]: inhibited hair growth

CN(C)c1nc(Cc2ccc(NC(=O)c3ccc(C(F)(F)F)cc3)cc2)nc(N(C)C)c1CC(=O)O [Example 14]
IC50 (human CRTH2): < 0.01 µM

CN(C)c1nc(Cc2ccc(NC(=O)c3ccc4ccccc4c3)cc2)ncc1CC(=O)O [Example 10]
IC50 (human CRTH2): < 0.01 µM

CN(C)c1nc(Cc2ccc(NC(=O)c3ccc4ccccc4c3)cc2)nc(Cl)c1CC(N)=O [Example 22]
IC50 (human CRTH2): 0.01 to 0.1 µM

CN(C)c1nc(Cc2ccc(NC(=O)c3ccc4ccccc4c3)cc2)nc(Cl)c1Cc1nnn[nH]1 [Example 21]
IC50 (human CRTH2): < 0.01 µM

O=C(O)Cc1c(Cl)nc(Cc2ccc(NC(=O)c3ccc4ccccc4c3)cc2)nc1Cl [Example 20]
IC50 (human CRTH2): < 0.01 µM
